Data as given in ChEMBL document CHEMBL1201862, “PubChem BioAssay data set” (2004).
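Cells were grown in 96-well plates and exposed to each compound for 48 hours at five concentrations; endpoints were interpolated linearly between bracketing concentrations, or set to the highest concentration if not reached. GI50 is the concentration that inhibits growth by half.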 Activity calls are given as the source filed them. No stated cut-off is given here; in the data, active = GI50 up to about 1.1 µM and inactive = higher.

Experiments:
Test in all cases: NCI-60 cell line screen, 48 h
UO-31 = tested on: UO-31
CAKI-1 = tested on: CAKI-1
SN12C = tested on: SN12C
UACC-257 = tested on: UACC-257
K562 = tested on: K562
SK-MEL-2 = tested on: SK-MEL-2
HOP-92 = tested on: HOP-92
IGROV-1 = tested on: IGROV-1
MOLT-4 = tested on: MOLT-4
A549 = tested on: A549
SNB-19 = tested on: SNB-19
RXF 631 = tested on: RXF 631
HOP-62 = tested on: HOP-62
SK-MEL-28 = tested on: SK-MEL-28
RXF 393 = tested on: RXF 393
OVCAR-5 = tested on: OVCAR-5
HL-60 = tested on: HL-60
HCC 2998 = tested on: HCC 2998
SW-620 = tested on: SW-620
HT-29 = tested on: HT-29
SK-MEL-5 = tested on: SK-MEL-5
SF-295 = tested on: SF-295
M19-MEL = tested on: M19-MEL
SF-539 = tested on: SF-539
Malme-3M = tested on: Malme-3M
NCI-H460 = tested on: NCI-H460
NCI-H226 = tested on: NCI-H226
OVCAR-4 = tested on: OVCAR-4
SNB-78 = tested on: SNB-78
DMS-114 = tested on: DMS-114
HOP-18 = tested on: HOP-18
SF-268 = tested on: SF-268
CCRF-CEM = tested on: CCRF-CEM
OVCAR-3 = tested on: OVCAR-3
U-251 = tested on: U-251
SK-OV-3 = tested on: SK-OV-3
KM12 = tested on: KM12
UACC-62 = tested on: UACC-62
DLD-1 = tested on: DLD-1
M14 = tested on: M14
LXFL 529 = tested on: LXFL 529
OVCAR-8 = tested on: OVCAR-8
SR = tested on: SR
ACHN = tested on: ACHN
COLO 205 = tested on: COLO 205
HCT-116 = tested on: HCT-116
HCT-15 = tested on: HCT-15
786-0 = tested on: 786-0
KM-20L2 = tested on: KM-20L2
NCI-H23 = tested on: NCI-H23
EKVX = tested on: EKVX
LOX IMVI = tested on: LOX IMVI
RPMI-8226 = tested on: RPMI-8226
TK-10 = tested on: TK-10
NCI-H522 = tested on: NCI-H522
XF498 = tested on: XF498
SNB-75 = tested on: SNB-75
DMS-273 = tested on: DMS-273
A498 = tested on: A498

Cc1ccc(C)c(NC(=O)CC/C(=N\NC(=O)C(N)=O)C(C)C(=O)c2ccc(O)cc2)c1 (stereo not drawn)
GI50 (UO-31): > 100 µM (inactive) | GI50 (CAKI-1): > 100 µM (inactive) | GI50 (SN12C): > 100 µM (inactive) | GI50 (UACC-257): > 100 µM (inactive) | GI50 (K562): > 100 µM (inactive) | GI50 (SK-MEL-2): > 100 µM (inactive) | GI50 (HOP-92): > 100 µM (inactive) | GI50 (IGROV-1): > 100 µM (inactive) | GI50 (MOLT-4): > 100 µM (inactive) | GI50 (A549): > 100 µM (inactive) | GI50 (SNB-19): > 100 µM (inactive) | GI50 (RXF 631): > 100 µM (inactive) | GI50 (HOP-62): > 100 µM (inactive) | GI50 (SK-MEL-28): > 100 µM (inactive) | GI50 (RXF 393): 61.1 µM (inactive) | GI50 (OVCAR-5): > 100 µM (inactive) | GI50 (HL-60): > 100 µM (inactive) | GI50 (HCC 2998): > 100 µM (inactive) | GI50 (SW-620): > 100 µM (inactive) | GI50 (HT-29): > 100 µM (inactive) | GI50 (SK-MEL-5): > 100 µM (inactive) | GI50 (SF-295): > 100 µM (inactive) | GI50 (M19-MEL): > 100 µM (inactive) | GI50 (SF-539): > 100 µM (inactive) | GI50 (Malme-3M): > 100 µM (inactive) | GI50 (NCI-H460): > 100 µM (inactive) | GI50 (NCI-H226): > 100 µM (inactive) | GI50 (OVCAR-4): > 100 µM (inactive) | GI50 (SNB-78): > 100 µM (inactive) | GI50 (DMS-114): > 100 µM (inactive) | GI50 (HOP-18): > 100 µM (inactive) | GI50 (SF-268): > 100 µM (inactive) | GI50 (CCRF-CEM): > 100 µM (inactive) | GI50 (OVCAR-3): > 100 µM (inactive) | GI50 (U-251): > 100 µM (inactive) | GI50 (SK-OV-3): > 100 µM (inactive) | GI50 (KM12): > 100 µM (inactive) | GI50 (UACC-62): > 100 µM (inactive) | GI50 (DLD-1): > 100 µM (inactive) | GI50 (M14): > 100 µM (inactive) | GI50 (LXFL 529): > 100 µM (inactive) | GI50 (OVCAR-8): > 100 µM (inactive) | GI50 (SR): > 100 µM (inactive) | GI50 (ACHN): > 100 µM (inactive) | GI50 (COLO 205): > 100 µM (inactive) | GI50 (HCT-116): > 100 µM (inactive) | GI50 (HCT-15): > 100 µM | GI50 (786-0): > 100 µM (inactive) | GI50 (KM-20L2): > 100 µM (inactive) | GI50 (NCI-H23): > 100 µM (inactive) | GI50 (EKVX): > 100 µM (inactive) | GI50 (LOX IMVI): > 100 µM (inactive)

Cc1ccc2c(c1)C1(OC(=O)c3ccccc31)c1ccc(F)cc1O2 (stereo not drawn)
GI50 (UO-31): 20.3 µM (inactive) | GI50 (CAKI-1): 30 µM (inactive) | GI50 (SN12C): > 100 µM (inactive) | GI50 (UACC-257): 31 µM (inactive) | GI50 (K562): 35 µM (inactive) | GI50 (SK-MEL-2): 43.3 µM (inactive) | GI50 (HOP-92): 16.1 µM (inactive) | GI50 (RPMI-8226): 24.2 µM (inactive) | GI50 (IGROV-1): > 100 µM (inactive) | GI50 (MOLT-4): 20.3 µM (inactive) | GI50 (A549): 48.9 µM (inactive) | GI50 (RXF 631): 83.9 µM (inactive) | GI50 (HOP-62): > 100 µM (inactive) | GI50 (OVCAR-5): > 100 µM (inactive) | GI50 (HL-60): 21.7 µM (inactive) | GI50 (HCC 2998): 66.1 µM (inactive) | GI50 (TK-10): > 100 µM (inactive) | GI50 (SW-620): 34.6 µM (inactive) | GI50 (HT-29): 39.3 µM (inactive) | GI50 (SK-MEL-5): 32.7 µM (inactive) | GI50 (M19-MEL): 57 µM (inactive) | GI50 (Malme-3M): 67.8 µM (inactive) | GI50 (NCI-H226): 18.7 µM (inactive) | GI50 (OVCAR-4): 49.8 µM (inactive) | GI50 (DMS-114): 34.6 µM (inactive) | GI50 (HOP-18): > 100 µM (inactive) | GI50 (SF-268): 68.4 µM (inactive) | GI50 (CCRF-CEM): 31.8 µM (inactive) | GI50 (OVCAR-3): 55.2 µM (inactive) | GI50 (SK-OV-3): > 100 µM (inactive) | GI50 (KM12): 51.3 µM (inactive) | GI50 (UACC-62): 70.6 µM (inactive) | GI50 (DLD-1): 61.8 µM (inactive) | GI50 (M14): 28.6 µM (inactive) | GI50 (LXFL 529): 56.5 µM (inactive) | GI50 (OVCAR-8): > 100 µM (inactive) | GI50 (SR): 25.5 µM (inactive) | GI50 (COLO 205): 38.7 µM (inactive) | GI50 (HCT-116): 32.7 µM (inactive) | GI50 (NCI-H522): 23.9 µM (inactive) | GI50 (786-0): 77.6 µM (inactive) | GI50 (KM-20L2): 44.1 µM (inactive) | GI50 (XF498): 82.8 µM (inactive) | GI50 (EKVX): 59 µM (inactive) | GI50 (LOX IMVI): 39.6 µM (inactive)

CCCCCCCCCCCCCCCCCC[N+](C)(C)Cc1ccc(C[N+](C)(C)CCCCCCCCCCCCCCCCCC)cc1
GI50 (SNB-75): 3.15 µM (inactive) | GI50 (UO-31): 27.7 µM (inactive) | GI50 (CAKI-1): 21.2 µM (inactive) | GI50 (DMS-273): 16.1 µM (inactive) | GI50 (SN12C): 10.9 µM (inactive) | GI50 (UACC-257): 15.9 µM (inactive) | GI50 (A498): 22.8 µM (inactive) | GI50 (K562): 45.1 µM (inactive) | GI50 (SK-MEL-2): 24.1 µM (inactive) | GI50 (HOP-92): 5.26 µM (inactive) | GI50 (RPMI-8226): 15.6 µM (inactive) | GI50 (IGROV-1): 16.6 µM (inactive) | GI50 (MOLT-4): 21 µM (inactive) | GI50 (A549): 13.6 µM (inactive) | GI50 (SNB-19): 14.1 µM (inactive) | GI50 (RXF 631): 20.9 µM (inactive) | GI50 (HOP-62): 4.41 µM (inactive) | GI50 (SK-MEL-28): 18.1 µM (inactive) | GI50 (RXF 393): 2.71 µM (inactive) | GI50 (OVCAR-5): 32.9 µM (inactive) | GI50 (HCC 2998): 26.2 µM (inactive) | GI50 (TK-10): 13.6 µM (inactive) | GI50 (SW-620): 18.2 µM (inactive) | GI50 (HT-29): 18.7 µM (inactive) | GI50 (SK-MEL-5): 22.8 µM (inactive) | GI50 (SF-295): 11.3 µM (inactive) | GI50 (M19-MEL): 16.9 µM (inactive) | GI50 (Malme-3M): 24.3 µM (inactive) | GI50 (NCI-H460): 17.6 µM (inactive) | GI50 (NCI-H226): 5.53 µM (inactive) | GI50 (OVCAR-4): 9.53 µM (inactive) | GI50 (SNB-78): 18.8 µM (inactive) | GI50 (DMS-114): 9.46 µM (inactive) | GI50 (HOP-18): 13 µM (inactive) | GI50 (SF-268): 21.7 µM (inactive) | GI50 (CCRF-CEM): 16.9 µM (inactive) | GI50 (OVCAR-3): 7.01 µM (inactive) | GI50 (U-251): 7.98 µM (inactive) | GI50 (SK-OV-3): 26.6 µM (inactive) | GI50 (KM12): 12.4 µM (inactive) | GI50 (UACC-62): 21.9 µM (inactive) | GI50 (DLD-1): 22.1 µM (inactive) | GI50 (M14): 17.3 µM (inactive) | GI50 (LXFL 529): 2.51 µM (inactive) | GI50 (OVCAR-8): 6.5 µM (inactive) | GI50 (SR): 2.39 µM (inactive) | GI50 (ACHN): 10.4 µM (inactive) | GI50 (COLO 205): 34.8 µM (inactive) | GI50 (HCT-116): 14.2 µM (inactive) | GI50 (HCT-15): 28 µM | GI50 (NCI-H522): 2.97 µM (inactive) | GI50 (786-0): 12.7 µM (inactive) | GI50 (KM-20L2): 31.3 µM (inactive) | GI50 (NCI-H23): 4.09 µM (inactive) | GI50 (EKVX): 18.9 µM (inactive) | GI50 (LOX IMVI): 13.6 µM (inactive)
